Where two headings read alike, the source gives them in different places.
What was measured:
[1] = target: T1, recombinant dSir2 (Drosophila melanogaster, UniProt Q9VK34); assay: dSir2 deacetylation assay; type: biochemical, D. melanogaster; details: dose-dependent; Fluor de Lys
T1 sequence (Q9VK34 1-823): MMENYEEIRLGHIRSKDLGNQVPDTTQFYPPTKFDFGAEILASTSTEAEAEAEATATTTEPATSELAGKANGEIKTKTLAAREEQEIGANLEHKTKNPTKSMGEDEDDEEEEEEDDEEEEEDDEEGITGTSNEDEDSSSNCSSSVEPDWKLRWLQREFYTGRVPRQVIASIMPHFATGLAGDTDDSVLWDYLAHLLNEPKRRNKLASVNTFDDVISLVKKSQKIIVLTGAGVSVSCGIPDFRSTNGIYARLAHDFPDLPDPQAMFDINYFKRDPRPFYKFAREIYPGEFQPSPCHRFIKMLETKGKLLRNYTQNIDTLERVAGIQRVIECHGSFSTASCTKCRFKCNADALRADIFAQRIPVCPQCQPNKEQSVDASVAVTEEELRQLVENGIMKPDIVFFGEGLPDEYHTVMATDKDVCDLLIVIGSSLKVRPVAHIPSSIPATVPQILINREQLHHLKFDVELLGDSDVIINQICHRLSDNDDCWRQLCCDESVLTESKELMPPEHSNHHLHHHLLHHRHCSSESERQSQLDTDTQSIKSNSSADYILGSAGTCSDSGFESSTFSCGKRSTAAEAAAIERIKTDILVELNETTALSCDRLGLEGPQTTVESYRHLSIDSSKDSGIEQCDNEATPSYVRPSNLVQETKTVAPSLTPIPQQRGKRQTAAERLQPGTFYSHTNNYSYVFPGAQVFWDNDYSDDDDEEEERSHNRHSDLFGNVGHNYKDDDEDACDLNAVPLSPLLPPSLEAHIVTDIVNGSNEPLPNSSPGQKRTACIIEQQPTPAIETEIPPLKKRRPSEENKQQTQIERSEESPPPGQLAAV
Protocol: STACs were dissolved at 10 mM in dimethylsulfoxide (DMSO) the day of the assay. […] Drosophila S2 cells were grown in Schneider media with fetal calf serum at 23-28° C., seeded at 9×10^4 cells/well, grown overnight and then exposed to 1 μM TSA, 500 μM polyphenols, and 200 μM FdL for 2 hr. Deacetylation of FdL with lysate from whole cells was determined as described^4. Unless otherwise indicated all initial rate measurements were means of three or more replicates obtained with single incubation times, at which point 5% or less of the substrate initially present was deacetylated.

[2] = target: T2, recombinant human SIRT1 (Homo sapiens, UniProt Q96EB6); assay: SIRT1 fluorescent deacetylation assay (p53-382 acetylated peptide); type: biochemical
T2 sequence (Q96EB6 1-747): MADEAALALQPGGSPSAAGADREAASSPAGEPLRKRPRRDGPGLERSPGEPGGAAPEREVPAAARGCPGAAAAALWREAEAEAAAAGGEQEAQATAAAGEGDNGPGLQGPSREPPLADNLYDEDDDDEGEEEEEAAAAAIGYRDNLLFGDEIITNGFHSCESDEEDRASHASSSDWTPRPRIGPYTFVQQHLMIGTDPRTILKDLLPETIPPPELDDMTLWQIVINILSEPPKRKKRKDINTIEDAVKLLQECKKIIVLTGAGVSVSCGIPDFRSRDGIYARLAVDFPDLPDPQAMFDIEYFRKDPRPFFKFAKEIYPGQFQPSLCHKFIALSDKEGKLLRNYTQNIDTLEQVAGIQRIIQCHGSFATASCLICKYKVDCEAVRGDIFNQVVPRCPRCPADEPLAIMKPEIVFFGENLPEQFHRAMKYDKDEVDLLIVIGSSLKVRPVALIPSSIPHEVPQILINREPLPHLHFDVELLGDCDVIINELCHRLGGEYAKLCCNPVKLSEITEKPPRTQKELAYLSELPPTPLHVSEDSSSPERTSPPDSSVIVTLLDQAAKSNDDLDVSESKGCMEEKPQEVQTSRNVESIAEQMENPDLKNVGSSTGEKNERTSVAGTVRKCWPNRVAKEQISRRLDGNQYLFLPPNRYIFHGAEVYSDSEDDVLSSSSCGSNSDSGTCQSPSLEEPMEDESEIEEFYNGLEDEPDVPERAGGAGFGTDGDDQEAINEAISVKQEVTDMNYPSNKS

[3] = tested on: rDNA locus (RDN1); assay: Ribosomal DNA recombination and silencing assays; type: cell-based, S. cerevisiae
Protocol: Pre-treated cells (RDN1::URA3) were harvested and spotted as 10-fold serial dilutions on either SC or SC with 5-fluororotic acid (5-FOA).
Ribosomal DNA silencing assays using the URA3 reporters were performed as previously described^26. Ribosomal DNA recombination frequencies were determined by plating W303AR cells^37 on YPD medium with low adenine/histidine and counting the fraction of half-red sectored colonies using Bio-Rad Quantity One software as previously described^35. At least 6000 cells were analyzed per experiment and all experiments were performed in triplicate.

[4] = 25 μM NAD+, 25 μM p53-382 acetylated peptide

Oc1ccc(/C=C/c2cc(O)cc(O)c2)cc1 [Resveratrol, 3,5,4′-Trihydroxy-trans-stilbene]
stimulated deacetylation (maximum) [1]: ≤ 2.4 fold | apparent Km for NAD+ and acetylated substrate in presence of nicotinamide ([2]; 5 μM resveratrol, 50 μM nicotinamide): raised | concentration at which the activating effect doubled the rate [2, 4]: ~11 µM | concentration at which the activating effect was essentially saturated [2, 4]: 100 µM | SIRT1 stimulating activity (in words) ([2]; 25 μM NAD+, 25 μM p53-382 acetylated peptide, compounds at 100 μM): most active compound overall | effect on the two Vmax determinations ([2]; 100 μM resveratrol): no significant effect | lowering of Km for NAD+ ([2]; 100 μM resveratrol, 1 mM acetylated peptide): over 5 fold | Vmax (+resveratrol), NAD+ varied ([2]; 100 μM resveratrol, 1 mM p53-382 acetylated peptide): 1749 AFU/min. | Vmax (+resveratrol), acetylated peptide varied ([2]; 100 μM resveratrol, 3 mM NAD+): 926 AFU/min. | decrease of acetylated peptide Km ([2]; 100 μM resveratrol, 3 mM NAD+): 35 fold | Km for NAD+ and acetylated peptide in presence of nicotinamide ([2]; 20 and 100 μM resveratrol, 50 μM nicotinamide): lowers the Km for both NAD^+ and acetylated peptide | Km ([2]; read-out: Km for NAD+ (+resveratrol), 100 μM resveratrol, 1 mM p53-382 acetylated peptide): 101 µM | Km ([2]; read-out: Km for p53-382 acetylated peptide (+resveratrol), 100 μM resveratrol, 3 mM NAD+): 1.8 µM | reduction of the frequency of rDNA recombination ([3]; SIR2-dependent): ~60% | effect on rDNA silencing ([3]; URA3 reporter, 5-FOA): only minor effects on rDNA silencing | rDNA recombination in the presence of nicotinamide ([3]; with Sir2 inhibitor nicotinamide): decreased

Reference: US20060276393A1, “Novel compositions for preventing and treating neurodegenerative and blood coagulation disorders” (Sirtris Pharmaceuticals, Inc., priority 2005, published 2006)
